Results taken from US20120010115A1, “PRESERVATIVE SYSTEM AND COMPOSITION BASED ON GLYCINATE AND DIHYDROXYPROPYL QUATERNARY AMMONIUM SALT COMBINATION” (CONOPCO, INC., D/B/A UNILEVER, priority 2010, published 2012).

Test system: Pseudomonas aeruginosa ATCC 9027
Experiment: Challenge Test for the Evaluation of Preservative Capacity of Liquid Detergent and Personal Products
Type: cell-based
Conditions: aqueous formula, each active 5%, pH 7.6, inoculum 1.06E+07 (Log 7)
Procedure: Experiments were conducted to evaluate antimicrobial activity against Pseudomonas aeruginosa of aqueous formulas containing 2,3-dihydroxypropyl trimethyl ammonium chloride (Glyceryl Quat), sodium cocoyl glycinate and combinations of these two materials. Samples were prepared at room temperature by mixing together sodium cocoyl glycinate and/or Glyceryl Quat and water. The pH was adjusted by addition of aqueous hydrochloric acid to reach a 7.6 value. Amounts of each of the active components was 5%. Test Method: Challenge Test for the Evaluation of Preservative Capacity of Liquid Detergent and Personal Products Test Microorganism: Pseudomonas aeruginosa ATCC 9027 obtained from American Type Culture Collection, Manassas, Va. 20108. Procedure: 20 grams of product were inoculated with 0.2 ml of the microorganism at a level of 1.06E+07 or Log 7. A single inoculation was performed. At 2 day, 7 day, 14 day and 21 day time points after inoculation a 1 gram sample was aseptically removed into a neutralizing fluid (TAT Broth) and plated using Letheen Agar. The plates were incubated at 30° C. for 7 days. At the end of the incubation time the plates were removed and examined for microbial growth. Calculation of Log Reduction: The microorganisms recovered were converted into Log10 and compared to initial inoculum count which then determined the Log Reduction. Logarithmic functions are the inverse of exponential functions. Log reduction was determined by the initial inoculum count minus the counts at each sampling time point.

sodium cocoyl glycinate
Log Reduction Value (2 day after inoculation): 1.1 | Log Reduction Value (7 day after inoculation): 1.1 | Log Reduction Value (14 day after inoculation): 0.8 | Log Reduction Value (21 day after inoculation): 0.2

C[N+](C)(C)CC(O)CO.[Cl-] (centres unmarked) [Glyceryl Quat, 2,3-dihydroxypropyl trimethyl ammonium chloride]
Log Reduction Value (2 day after inoculation): 2.1 | Log Reduction Value (7 day after inoculation): 1.5 | Log Reduction Value (14 day after inoculation): 2.8 | Log Reduction Value (21 day after inoculation): 3.4
